Consider four molecules from paper PMC7949057, “The cytoprotective protein MANF promotes neuronal survival independently from its role as a GRP78 cofactor” (The Journal of Biological Chemistry, 2021).

Changes are numbered by the printed parent chain.

Type in all cases: binding
Experiment [1] concerns the target T1, MANF (Homo sapiens, UniProt P55145).
T1 construct: mature secreted protein (about 18 kDa, signal peptide cleaved), made in CHO-derived cells (QMCF, Icosagen), no tag told; amine-labelled with RED-NHS for MST
T1 sequence (P55145 25-182): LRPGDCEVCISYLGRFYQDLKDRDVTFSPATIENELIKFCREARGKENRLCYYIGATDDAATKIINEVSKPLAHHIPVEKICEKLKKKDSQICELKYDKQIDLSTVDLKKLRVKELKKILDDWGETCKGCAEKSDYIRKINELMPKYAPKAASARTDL
The experiment in a line: microscale thermophoresis. The source says:
microscale thermophoresis on MANF | MANF did interact with ADP, ATP, and AMP–PNP with Kd-s of […]
Background: Microscale thermophoresis detects binding through changes in fluorescence in a small temperature gradient.

Experiment [2] addresses T2, C-MANF (Homo sapiens, UniProt P55145).
T2 sequence (P55145 120-182 limits assumed): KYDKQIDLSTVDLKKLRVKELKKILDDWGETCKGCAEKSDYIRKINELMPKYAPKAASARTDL
The experiment in a line: […]-HSQC NMR chemical shift perturbation. The conditions noted are these: 100 μM C-MANF, ATP:protein 0.5 to 10; 20 mM sodium phosphate pH 6.5, 50 mM NaCl; 25 °C; site at V134, K135.

Experiment [3] has as its target T3, MANF (Homo sapiens, UniProt P55145, V137G/K138A, form not given).
T3 construct: mature secreted protein (about 18 kDa, signal peptide cleaved), made in CHO-derived cells (QMCF, Icosagen), no tag told; amine-labelled with RED-NHS for MST
T3 sequence (P55145 25-182 V137G/K138A): T1 sequence (P55145 25-182) with V113G, K114A
Nature of the experiment: microscale thermophoresis. The conditions noted are these: labelled MANF 50 nM; 10 mM Na-phosphate pH 7.4, 1 mM MgCl2, 3 mM KCl, 150 mM NaCl, 0.05% Tween-20; 25 °C; 1:1 fit. The source says: microscale thermophoresis on MANF | the mutant was able to bind ATP similarly to the wild-type MANF

The target in experiment [4] is T4, GRP78 (Cricetulus griseus, UniProt G3I8R9).
T4 construct: gene HSPA5; full-length recombinant, N-terminal His-tag, labelled with RED-tris-NTA for MST
The experiment in a line: fluorescent nucleotide release (ex […] nm, em […] nm). The following applies: labelled compound; GRP78 1.25 μM, MABA-ADP 1.25 μM, chase ATP 125 μM, no MANF; 50 mM HEPES-KOH pH 7.4, 100 mM KCl, 10 mM MgCl2.

T4 sequence (G3I8R9 19-654): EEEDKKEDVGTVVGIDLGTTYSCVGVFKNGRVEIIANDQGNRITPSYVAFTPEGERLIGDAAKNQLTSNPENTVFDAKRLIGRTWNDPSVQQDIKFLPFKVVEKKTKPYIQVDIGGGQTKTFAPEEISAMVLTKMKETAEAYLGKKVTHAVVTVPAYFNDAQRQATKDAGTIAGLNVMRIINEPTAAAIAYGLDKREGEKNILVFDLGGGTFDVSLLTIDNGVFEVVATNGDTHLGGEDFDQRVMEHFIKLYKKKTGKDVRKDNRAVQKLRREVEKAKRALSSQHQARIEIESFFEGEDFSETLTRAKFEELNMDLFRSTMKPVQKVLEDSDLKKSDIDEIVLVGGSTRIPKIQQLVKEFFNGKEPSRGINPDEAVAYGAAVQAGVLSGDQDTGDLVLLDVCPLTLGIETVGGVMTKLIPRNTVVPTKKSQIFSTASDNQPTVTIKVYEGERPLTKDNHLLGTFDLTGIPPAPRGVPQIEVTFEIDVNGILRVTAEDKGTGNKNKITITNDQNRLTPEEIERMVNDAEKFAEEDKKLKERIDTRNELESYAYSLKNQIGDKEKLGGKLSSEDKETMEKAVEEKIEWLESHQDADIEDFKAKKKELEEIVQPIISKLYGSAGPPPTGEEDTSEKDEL

In general, Kd refers to the equilibrium constant for the complex coming apart. `Nc1ncnc2c1ncn2[C@@H]1O[C@H](COP(=O)(O)OP(=O)(O)OP(=O)(O)O)[C@@H](O)[C@H]1O` [ATP]: the dissociation constant Kd in experiment [1] worked out at 830 ± 390 µM; in experiment [3], 339 ± 160 µM. Further, in experiment [2], the “15N-HSQC NMR chemical shift perturbation” value is reported as “the ATP binding site is located at the C-terminal domain of MANF”.
With `Nc1ncnc2c1ncn2[C@@H]1O[C@H](COP(=O)(O)OP(=O)(O)NP(=O)(O)O)[C@@H](O)[C@H]1O` [AMP–PNP], in experiment [1], the dissociation constant (Kd) is 560 ± 170 µM.
For `Nc1ncnc2c1ncn2[C@@H]1O[C@H](COP(=O)(O)OP(=O)(O)O)[C@@H](O)[C@H]1O` [ADP], the Kd in experiment [1] is 880 ± 280 µM.
Take `CNc1ccccc1C(=O)NCCCCNc1nc2c(N)ncnc2n1[C@@H]1O[C@H](COP(=O)(O)OP(=O)(O)O)[C@@H](O)[C@H]1O` [MABA–ADP]: the koff result in experiment [4] was “determine the mean koff rates of MABA–ADP release”.
